{
  "source": "ChEMBL document CHEMBL1201862",
  "about": "“PubChem BioAssay data set” (2004)",
  "key": {"[1]": {"test": "MITF Orthogonal Assay: MALME3 CTG Assay Measured in Cell-Based System Using Plate Reader - 2084-04_Inhibitor_Dose_DryPowder_Activity_Set6.", "format": "functional", "settings": "MALME-3"}, "[2]": {"test": "viability loss in MITF-independent A375 cells – cell-based, CellTiter-Glo luminescence, dry powder, set 2, counter-screen for MITF inhibitor project, dose response (AID 624489);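 also: actives are compounds lowering A375 viability meaning general cytotoxicity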", "format": "functional", "settings": "A-375"}, "[3]": {"biological_target": "Dual specificity protein phosphatase 3 (Homo sapiens, UniProt P51452)", "sequence (P51452 whole entry)": "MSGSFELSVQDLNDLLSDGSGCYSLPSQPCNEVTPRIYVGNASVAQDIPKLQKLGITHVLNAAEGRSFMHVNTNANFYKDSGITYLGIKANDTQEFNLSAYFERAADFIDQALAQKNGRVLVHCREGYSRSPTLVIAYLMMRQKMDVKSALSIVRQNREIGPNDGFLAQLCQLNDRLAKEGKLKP", "test": "VHR1 phosphatase inhibitors, biochemical (AID 1878)"}, "[4]": {"biological_target": "Dual specificity tyrosine-phosphorylation-regulated kinase 1A (Rattus norvegicus, UniProt Q63470)", "format": "biochemical, Homo sapiens"}, "[5]": {"biological_target": "T1, Streptokinase A (Streptococcus pyogenes serotype M1, UniProt P10520)", "T1 sequence (P10520 whole entry)": "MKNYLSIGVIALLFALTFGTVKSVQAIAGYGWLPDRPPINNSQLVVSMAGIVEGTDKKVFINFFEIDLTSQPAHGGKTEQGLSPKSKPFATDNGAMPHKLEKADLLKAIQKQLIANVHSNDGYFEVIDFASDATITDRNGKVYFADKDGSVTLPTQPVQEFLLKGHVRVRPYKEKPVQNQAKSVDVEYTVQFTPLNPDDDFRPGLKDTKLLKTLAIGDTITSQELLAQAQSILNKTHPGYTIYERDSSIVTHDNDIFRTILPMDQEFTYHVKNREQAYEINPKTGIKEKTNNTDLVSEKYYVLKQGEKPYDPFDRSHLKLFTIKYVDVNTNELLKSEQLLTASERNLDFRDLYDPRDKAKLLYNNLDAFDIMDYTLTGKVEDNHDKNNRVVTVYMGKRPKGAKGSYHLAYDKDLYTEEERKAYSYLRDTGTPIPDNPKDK", "test": "viability-normalized secreted streptokinase activity reduction – plasminogen activation absorbance, OD405, dose response (AID 1914);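 also: secreted streptokinase activity via plasminogen activation per viability signal from cell pellet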", "format": "functional, Streptococcus pyogenes M1 GAS"}, "[6]": {"test": "NIH3T3 cell viability loss – ATP luminescence, mouse fibroblasts, counter-screen, dose response (AID 2010);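 also: cells exposed to compound for about 90 hours before reading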", "format": "functional, cell-based"}, "[7]": {"biological_target": "T2, Apoptotic protease-activating factor 1 (Homo sapiens, UniProt O14727)", "T2 sequence (O14727 whole entry)": "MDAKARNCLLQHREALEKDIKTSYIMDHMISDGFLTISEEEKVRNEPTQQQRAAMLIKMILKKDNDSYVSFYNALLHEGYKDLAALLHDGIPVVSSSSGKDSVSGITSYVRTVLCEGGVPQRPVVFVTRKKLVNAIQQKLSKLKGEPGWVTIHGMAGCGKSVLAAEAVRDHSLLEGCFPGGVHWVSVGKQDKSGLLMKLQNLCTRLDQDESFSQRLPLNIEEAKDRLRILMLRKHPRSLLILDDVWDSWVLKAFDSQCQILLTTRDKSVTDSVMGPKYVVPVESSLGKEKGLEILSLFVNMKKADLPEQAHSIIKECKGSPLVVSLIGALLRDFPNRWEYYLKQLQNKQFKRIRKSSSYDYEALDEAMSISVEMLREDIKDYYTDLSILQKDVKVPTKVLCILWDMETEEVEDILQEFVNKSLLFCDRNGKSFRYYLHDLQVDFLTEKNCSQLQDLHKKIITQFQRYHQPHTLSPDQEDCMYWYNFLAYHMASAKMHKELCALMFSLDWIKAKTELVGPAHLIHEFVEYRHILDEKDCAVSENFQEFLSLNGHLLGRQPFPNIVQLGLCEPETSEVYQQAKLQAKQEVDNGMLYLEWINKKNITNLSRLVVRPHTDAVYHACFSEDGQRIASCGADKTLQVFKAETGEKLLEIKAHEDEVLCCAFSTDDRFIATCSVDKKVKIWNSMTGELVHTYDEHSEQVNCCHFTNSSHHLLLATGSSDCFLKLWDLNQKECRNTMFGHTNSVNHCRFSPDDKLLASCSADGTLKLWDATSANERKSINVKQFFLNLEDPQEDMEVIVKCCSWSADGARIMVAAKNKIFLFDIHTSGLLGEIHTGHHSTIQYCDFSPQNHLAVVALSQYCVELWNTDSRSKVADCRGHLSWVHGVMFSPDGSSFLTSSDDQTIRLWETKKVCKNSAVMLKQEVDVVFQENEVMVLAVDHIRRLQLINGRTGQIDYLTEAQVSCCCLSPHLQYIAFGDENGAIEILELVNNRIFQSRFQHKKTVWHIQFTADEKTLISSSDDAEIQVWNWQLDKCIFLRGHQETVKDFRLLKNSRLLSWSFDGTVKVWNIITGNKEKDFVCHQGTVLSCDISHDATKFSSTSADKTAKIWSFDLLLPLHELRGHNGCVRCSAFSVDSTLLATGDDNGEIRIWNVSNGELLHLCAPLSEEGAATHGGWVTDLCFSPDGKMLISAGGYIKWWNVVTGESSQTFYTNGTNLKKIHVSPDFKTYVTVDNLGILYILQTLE", "format": "functional"}, "[8]": {"biological_target": "Ribosomal protein S6 kinase beta-1 (Homo sapiens, UniProt P23443)", "format": "functional"}, "[9]": {"biological_target": "Tyrosine-protein kinase SYK (Homo sapiens, UniProt P43405)", "format": "functional"}, "[10]": {"biological_target": "Serine/threonine-protein kinase 17A (Homo sapiens, UniProt Q9UEE5)", "sequence (Q9UEE5 whole entry)": "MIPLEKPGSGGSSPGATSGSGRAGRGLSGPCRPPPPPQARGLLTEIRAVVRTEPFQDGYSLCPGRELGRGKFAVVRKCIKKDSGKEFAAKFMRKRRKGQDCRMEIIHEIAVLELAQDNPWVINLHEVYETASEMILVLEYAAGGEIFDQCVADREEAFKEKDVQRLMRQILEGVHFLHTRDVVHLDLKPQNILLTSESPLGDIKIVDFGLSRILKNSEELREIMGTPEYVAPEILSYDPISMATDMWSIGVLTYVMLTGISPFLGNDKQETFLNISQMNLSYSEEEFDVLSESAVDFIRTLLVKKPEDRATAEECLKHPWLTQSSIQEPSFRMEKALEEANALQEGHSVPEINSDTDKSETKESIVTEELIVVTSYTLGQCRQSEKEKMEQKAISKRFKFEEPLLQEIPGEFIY", "format": "functional"}, "[11]": {"biological_target": "Insulin-like growth factor 1 receptor (Homo sapiens, UniProt P08069)", "sequence (P08069 31-736 limits assumed)": "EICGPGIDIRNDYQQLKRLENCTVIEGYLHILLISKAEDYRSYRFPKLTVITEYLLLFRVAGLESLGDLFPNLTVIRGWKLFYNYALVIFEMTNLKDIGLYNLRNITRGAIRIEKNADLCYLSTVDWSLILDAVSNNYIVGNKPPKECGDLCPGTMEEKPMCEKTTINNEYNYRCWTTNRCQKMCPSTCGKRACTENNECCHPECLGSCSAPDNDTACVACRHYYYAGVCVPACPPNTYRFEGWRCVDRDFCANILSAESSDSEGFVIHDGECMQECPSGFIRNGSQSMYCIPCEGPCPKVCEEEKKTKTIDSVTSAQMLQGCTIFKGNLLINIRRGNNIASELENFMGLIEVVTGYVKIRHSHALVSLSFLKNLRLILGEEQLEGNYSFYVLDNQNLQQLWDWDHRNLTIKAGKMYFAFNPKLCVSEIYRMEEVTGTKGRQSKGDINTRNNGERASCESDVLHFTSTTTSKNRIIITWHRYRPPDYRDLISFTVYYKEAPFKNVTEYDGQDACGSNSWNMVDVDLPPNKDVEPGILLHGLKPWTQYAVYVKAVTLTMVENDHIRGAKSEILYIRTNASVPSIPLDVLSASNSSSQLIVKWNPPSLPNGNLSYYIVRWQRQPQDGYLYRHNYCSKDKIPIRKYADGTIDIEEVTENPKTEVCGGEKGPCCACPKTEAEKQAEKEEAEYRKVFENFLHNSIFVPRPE", "sequence (P08069 741-1367 limits assumed)": "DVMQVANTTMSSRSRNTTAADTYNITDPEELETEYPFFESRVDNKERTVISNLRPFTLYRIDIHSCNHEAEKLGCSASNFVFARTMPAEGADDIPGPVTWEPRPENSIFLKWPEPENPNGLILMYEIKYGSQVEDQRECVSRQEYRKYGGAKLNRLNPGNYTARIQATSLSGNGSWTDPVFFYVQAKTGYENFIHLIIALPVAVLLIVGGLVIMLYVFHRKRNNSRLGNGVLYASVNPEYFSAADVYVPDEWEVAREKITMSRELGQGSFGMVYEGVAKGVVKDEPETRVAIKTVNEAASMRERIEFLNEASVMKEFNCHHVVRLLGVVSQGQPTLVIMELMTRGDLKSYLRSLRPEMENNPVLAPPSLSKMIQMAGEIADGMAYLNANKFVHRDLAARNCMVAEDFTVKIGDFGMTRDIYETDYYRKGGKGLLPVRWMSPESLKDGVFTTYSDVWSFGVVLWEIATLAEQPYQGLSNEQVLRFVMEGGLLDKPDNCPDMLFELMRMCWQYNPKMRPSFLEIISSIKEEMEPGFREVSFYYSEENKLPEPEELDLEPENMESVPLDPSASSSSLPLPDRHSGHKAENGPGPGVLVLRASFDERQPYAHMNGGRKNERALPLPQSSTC", "test": "Navigating the Kinome. Panel member name: IGF1R", "format": "functional"}, "[12]": {"biological_target": "Tyrosine-protein kinase Fer (Homo sapiens, UniProt P16591)", "sequence (P16591 whole entry)": "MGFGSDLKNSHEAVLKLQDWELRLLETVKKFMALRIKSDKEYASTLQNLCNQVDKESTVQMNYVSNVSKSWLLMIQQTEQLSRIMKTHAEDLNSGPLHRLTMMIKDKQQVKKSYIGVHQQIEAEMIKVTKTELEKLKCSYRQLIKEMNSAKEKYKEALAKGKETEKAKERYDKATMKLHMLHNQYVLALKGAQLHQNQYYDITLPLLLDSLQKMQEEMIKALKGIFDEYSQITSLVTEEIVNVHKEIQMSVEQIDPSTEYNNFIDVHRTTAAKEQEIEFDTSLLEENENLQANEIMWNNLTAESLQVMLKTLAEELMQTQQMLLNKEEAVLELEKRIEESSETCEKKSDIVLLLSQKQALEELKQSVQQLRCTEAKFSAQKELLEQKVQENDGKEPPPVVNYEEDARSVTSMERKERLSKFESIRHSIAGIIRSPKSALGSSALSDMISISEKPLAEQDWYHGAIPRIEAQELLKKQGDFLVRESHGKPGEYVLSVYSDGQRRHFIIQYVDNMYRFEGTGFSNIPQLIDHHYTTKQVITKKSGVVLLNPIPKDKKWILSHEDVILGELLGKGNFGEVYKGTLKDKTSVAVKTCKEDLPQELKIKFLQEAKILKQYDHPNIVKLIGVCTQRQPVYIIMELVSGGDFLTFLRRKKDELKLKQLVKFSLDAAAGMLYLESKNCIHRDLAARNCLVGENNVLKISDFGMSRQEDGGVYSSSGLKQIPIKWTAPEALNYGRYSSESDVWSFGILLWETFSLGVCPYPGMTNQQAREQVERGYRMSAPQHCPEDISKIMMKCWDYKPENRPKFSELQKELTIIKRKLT", "format": "functional"}, "[13]": {"biological_target": "Cyclin-dependent kinase 1 (Homo sapiens, UniProt P06493)", "sequence (P06493 whole entry)": "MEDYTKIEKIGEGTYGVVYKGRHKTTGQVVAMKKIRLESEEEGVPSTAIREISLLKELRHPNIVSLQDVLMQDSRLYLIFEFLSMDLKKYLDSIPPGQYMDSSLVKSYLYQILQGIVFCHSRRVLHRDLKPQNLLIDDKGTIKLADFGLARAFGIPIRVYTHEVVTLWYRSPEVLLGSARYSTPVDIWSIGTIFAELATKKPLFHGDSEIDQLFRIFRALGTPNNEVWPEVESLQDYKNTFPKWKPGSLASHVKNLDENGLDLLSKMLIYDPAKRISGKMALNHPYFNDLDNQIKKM", "format": "functional"}, "[14]": {"biological_target": "STE20-like serine/threonine-protein kinase (Homo sapiens, UniProt Q9H2G2)", "format": "functional"}, "[15]": {"biological_target": "Receptor tyrosine-protein kinase erbB-4 (Homo sapiens, UniProt Q15303)", "format": "functional"}, "[16]": {"biological_target": "cAMP-dependent protein kinase catalytic subunit alpha (Homo sapiens, UniProt P17612)", "format": "functional"}, "[17]": {"biological_target": "Inhibitor of nuclear factor kappa-B kinase subunit epsilon (Homo sapiens, UniProt Q14164)", "sequence (Q14164 whole entry)": "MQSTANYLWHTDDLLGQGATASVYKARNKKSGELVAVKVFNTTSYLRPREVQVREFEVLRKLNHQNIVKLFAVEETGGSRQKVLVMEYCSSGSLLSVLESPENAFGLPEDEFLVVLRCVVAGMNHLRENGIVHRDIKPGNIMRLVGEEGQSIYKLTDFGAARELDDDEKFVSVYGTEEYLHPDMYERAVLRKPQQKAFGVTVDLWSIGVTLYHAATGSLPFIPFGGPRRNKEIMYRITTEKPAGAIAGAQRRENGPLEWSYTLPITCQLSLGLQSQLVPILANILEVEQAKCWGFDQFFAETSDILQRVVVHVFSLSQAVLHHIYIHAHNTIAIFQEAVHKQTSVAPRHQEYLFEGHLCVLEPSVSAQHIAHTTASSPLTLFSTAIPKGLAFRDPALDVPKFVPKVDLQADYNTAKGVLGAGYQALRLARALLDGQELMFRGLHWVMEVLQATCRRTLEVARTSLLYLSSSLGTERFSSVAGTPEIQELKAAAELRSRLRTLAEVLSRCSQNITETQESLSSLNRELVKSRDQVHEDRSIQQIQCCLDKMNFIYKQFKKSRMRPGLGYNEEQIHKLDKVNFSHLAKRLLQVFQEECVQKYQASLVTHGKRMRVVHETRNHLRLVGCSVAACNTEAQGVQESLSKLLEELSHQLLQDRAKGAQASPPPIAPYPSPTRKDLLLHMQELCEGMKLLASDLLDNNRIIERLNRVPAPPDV", "test": "Navigating the Kinome. Panel member name: IKBKE", "format": "functional"}, "[18]": {"biological_target": "Calcium/calmodulin-dependent protein kinase type II subunit alpha (Homo sapiens, UniProt Q9UQM7)", "sequence (Q9UQM7 whole entry)": "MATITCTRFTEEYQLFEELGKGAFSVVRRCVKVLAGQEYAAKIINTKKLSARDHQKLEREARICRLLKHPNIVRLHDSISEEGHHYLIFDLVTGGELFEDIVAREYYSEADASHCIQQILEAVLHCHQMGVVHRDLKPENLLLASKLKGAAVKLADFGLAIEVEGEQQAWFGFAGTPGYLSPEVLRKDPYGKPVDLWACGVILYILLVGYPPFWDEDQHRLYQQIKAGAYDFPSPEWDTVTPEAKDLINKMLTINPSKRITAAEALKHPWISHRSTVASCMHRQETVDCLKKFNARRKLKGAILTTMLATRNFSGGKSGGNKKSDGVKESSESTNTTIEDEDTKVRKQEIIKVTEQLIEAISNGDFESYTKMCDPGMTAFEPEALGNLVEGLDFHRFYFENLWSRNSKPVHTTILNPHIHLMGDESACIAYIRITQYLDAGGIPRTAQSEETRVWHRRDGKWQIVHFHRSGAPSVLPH", "test": "Navigating the Kinome. Panel member name: CAMK2A", "format": "functional"}, "[19]": {"biological_target": "Tyrosine-protein kinase FRK (Homo sapiens, UniProt P42685)", "sequence (P42685 whole entry)": "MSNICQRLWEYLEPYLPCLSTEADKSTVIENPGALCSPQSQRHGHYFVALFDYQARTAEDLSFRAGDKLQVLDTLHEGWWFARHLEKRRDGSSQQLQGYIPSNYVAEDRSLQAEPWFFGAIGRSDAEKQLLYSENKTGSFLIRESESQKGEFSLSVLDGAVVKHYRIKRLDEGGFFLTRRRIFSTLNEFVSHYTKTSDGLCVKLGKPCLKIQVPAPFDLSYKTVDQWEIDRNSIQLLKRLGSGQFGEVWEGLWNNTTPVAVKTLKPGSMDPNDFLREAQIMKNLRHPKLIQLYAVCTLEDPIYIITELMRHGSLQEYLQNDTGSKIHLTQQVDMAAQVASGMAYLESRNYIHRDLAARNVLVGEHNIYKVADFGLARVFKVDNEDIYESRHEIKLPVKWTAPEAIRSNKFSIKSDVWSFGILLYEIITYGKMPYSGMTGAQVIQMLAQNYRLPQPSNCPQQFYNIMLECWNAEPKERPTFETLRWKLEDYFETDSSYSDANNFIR", "format": "functional"}},
  "note": "Active and inactive are the calls of the source.",
  "data": [
    {"smiles": "C=CCNC1=C(Cl)C(=O)c2ccccc2C1=O", "values": [
      {"measurement": "AC50", "setting": "[1]", "result": "9990 nM (active)"},
      {"measurement": "AC50", "setting": "[2]", "result": "> 70000 nM (inactive)"}
    ]},
    {"smiles": "CS(=O)(=O)c1ccc2c(c1)SC1=NC(=O)/C(=C/c3ccc(O)c(O)c3)C(=N)N12", "values": [
      {"measurement": "IC50", "setting": "[3]", "result": "4570 nM (active)"},
      {"measurement": "AC50", "setting": "[4]", "result": "2710 nM (active)"}
    ]},
    {"smiles": "CCOC(=O)C(C(=O)OCC)c1cc(Br)c2noc3c2c1C(=O)c1ccccc1-3", "values": [
      {"measurement": "EC50", "setting": "[5]", "result": "11900 nM (active)"},
      {"measurement": "EC50", "setting": "[6]", "result": "3060 nM (active)"},
      {"measurement": "IC50", "setting": "[7]", "result": "47700 nM (active)"}
    ]},
    {"smiles": "COc1ccc(C(=O)Nc2n[nH]c3ccc(-c4cn(Cc5ccccc5)nn4)cc23)cc1OC", "values": [
      {"measurement": "Ki", "setting": "[8]", "result": "100 nM (active)"},
      {"measurement": "Ki", "setting": "[9]", "result": "20 nM (active)"},
      {"measurement": "Ki", "setting": "[10]", "result": "50.1 nM (active)"},
      {"measurement": "Ki", "setting": "[11]", "result": "> 2000 nM (inactive)"},
      {"measurement": "Ki", "setting": "[12]", "result": "251 nM (active)"},
      {"measurement": "Ki", "setting": "[13]", "result": "39.8 nM (active)"},
      {"measurement": "Ki", "setting": "[14]", "result": "2000 nM (active)"},
      {"measurement": "Ki", "setting": "[15]", "result": "> 3980 nM (inactive)"},
      {"measurement": "Ki", "setting": "[16]", "result": "501 nM (active)"},
      {"measurement": "Ki", "setting": "[17]", "result": "200 nM (active)"},
      {"measurement": "Ki", "setting": "[18]", "result": "398 nM (active)"},
      {"measurement": "Ki", "setting": "[19]", "result": "79.4 nM (active)"}
    ]}
  ]
}
